Each structure is given as a SMILES string.

Common to all, as to assay type: cell-based, human
The test system of test [1] is CDK1. The test can be described thus: CDK1 ELISA in PDAC-3. The conditions noted are these: PDAC-3, 10 µM, 24 h, vs DMSO control, p < 0.01. As to the method: (§1) The expression of CDK1 was detected and quantified using an Enzyme-Linked Immunosorbent Assay (ELISA, Human cyclin-dependent kinase 1 (CDK1) ELISA Kit, Catalog Number: MBS707090) according to the manufacturer’s protocol and our previous studies. Volumes of 100 µL of the standard and the sample were added for each well, and the plates were incubated for 2 h at 37 °C. Then, the liquid was removed, and 100 µL of biotin-antibody was added to each well; the plates were then incubated for 1 h at 37 °C. The medium was removed, and the plates were washed with wash buffer (200 µL). Subsequently, 100 µL of HRP-avidin was added to each well, and the plates were incubated for 1 h at 37 °C. The washing process was repeated five times. At the end, 90 µL of TMB substrate was added to each well, and the plates were incubated for 30 min at 37 °C in the dark. Finally, 50 µL of stop solution was added to each well. The optical density of each well was determined using a microplate reader set to 450 nm.
Background: An ELISA detects its analyte on a solid surface through an enzyme-linked reagent.

The test system of test [2] is Panc-1 cells. Put plainly: SRB antiproliferative assay, Panc-1. As to the method: (§2) The cytotoxic activity of the nortopsentin derivatives 3b, 3e, 4c, 5b, and 6c on pancreatic cancer cells (BxPC-3, Panc-1, Suit-2, Capan-1, PaTu-T, primary PDAC-3 and resistant Panc-1-GR cells) was determined by the sulforhodamine B (SRB) chemosensitivity assay, as described previously. Cells were plated in 96-well flat-bottom plates at final concentrations ranging from 3000–5000 cells/well in 100 µL of medium. After a 24 h pre-incubation period, cells were treated with the compounds at nine screening concentrations (from 0.1 μM to 40 μM) in triplicate and incubated at 37 °C for 72 h. After the treatment, cells were fixed with 25 µL of cold 50% trichloroacetic acid (TCA) for each well and incubated at 4 °C for 1 h. Afterwards, plates were washed five times with demi-water and air-dried overnight. Then, the plates were stained with 50 µL of 0.4% SRB solution in 1% acetic acid for 15 min. The excess stain was rinsed off by placing the plates under running 1% acetic acid and allowed to dry at room temperature overnight. SRB staining was rinsed with 150 µL tris(hydroxymethyl)aminomethane solution pH = 8.8 (TRIS-base), and the optical density (OD) was read at 492 nm. Each assay was performed in triplicate and assays were repeated at least three times. The comparison of the average optical density of the growth in control wells with that in the sample wells allowed the estimation of the percentage of cell growth, using the following equation: % Cell Growth = (mean ODcompound − mean ODday zero plate)/(mean ODcells − mean ODday zero plate) × 100
(§3) The results obtained were adjusted by the day zero plate (wells containing cells growing for only 24 h) and normalized by the control cells (wells with untreated cells) to obtain the rate of viable cells.
(Sulforhodamine B stains cellular protein and so reports cell mass.)

Test [3] concerns CDK1. The test can be described thus: CDK1 ELISA in Suit-2. The settings on record: Suit-2, 10 µM, 24 h, vs DMSO control, p < 0.01. On the procedure: as §1
The test system of test [4] is PDAC-3 cells. The test can be described thus: SRB antiproliferative assay, primary culture PDAC-3. On the procedure:
as §2, §3

Test [5] concerns Capan-1 cells. The test can be described thus: SRB antiproliferative assay, Capan-1. As to the method:
as §2, §3

With `Cn1cc(-c2nnc(-c3cn(C)c4ncccc34)o2)c2ccccc21` [3b, 1-methyl-3-[5-(1-methyl-1H-indol-3-yl)-1,3,4-oxadiazol-2-yl]-7-azaindole], the “CDK1 expression by ELISA” value in test [1] and in test [3] was “reduction in CDK1 expression” throughout. The IC50 was found to be 2.5 ± 0.55 µM in test [2] (Homo sapiens, Panc-1, 72 h, mean ± SEM, read-out: Half-maximal inhibitory concentration (IC50)); 8.1 ± 0.14 µM in test [4] (Homo sapiens, PDAC-3, 72 h, mean ± SEM, read-out: Half-maximal inhibitory concentration (IC50)); 2.6 ± 0.62 µM in test [5] (Homo sapiens, Capan-1, 72 h, mean ± SEM, read-out: Half-maximal inhibitory concentration (IC50)). For the same compound, the Cell growth percentage in test [2] (Panc-1, 10 μM, 72 h exposure) stood at 9.12%; in test [4] (PDAC-3, 10 μM, 72 h exposure) it was 38.35%; in test [5] (Capan-1, 10 μM, 72 h exposure), 18.33%.
